19 compounds from patent US9029373B2, “Kinase inhibitors” (Chiesi Farmaceutici S.p.A., priority 2011, dated 2015) can be followed below.

Counter-ions that a name gives are not always drawn. Bounds are passed on as bounds.

Assay [1] concerns the target T1, p38alpha (Homo sapiens, UniProt Q16539).
T1 construct: purchased Invitrogen PV3304
The assay can be described thus: P38alpha enzyme inhibition assay (Alphascreen kinase activity assay). It is filed as biochemical. The conditions noted are these: 100 pM p38alpha, 250 μM ATP, 2 hours pre-incubation at 25° C., ATF-2 fusion protein substrate; read-out: p38α inhibition (IC50 values). The procedure: P38alpha Enzyme Inhibition Assay.
The inhibitory activity of compounds was determined using an Alphascreen® (Perkin Elmer) based kinase activity assay. Kinase reactions consisted of 25 mM HEPES pH 7.5, 10 mM MgCl2, 100 μM Na3VO4, 2 mM DTT, 0.05 mg/ml Tween 20, 100 pM p38alpha (Invitrogen, PV3304), 1% DMSO and 0.3 μg/ml ATF-2 fusion protein (New England Biolabs, 9224). Compounds were incubated under these conditions for 2 hours, at 25° C., prior to the initiation of the kinase activity by the addition of the 250 μM ATP. Reaction volumes were 20 uL. After 1 hr at 25° C. reactions were stopped by the adding 10 uL of 25 mM HEPES pH 7.5 containing 62.5 mM EDTA, 0.05% Triton X-100, 10% BSA and 0.83 ng/uL anti-phospho-ATF2 antibody (Abeam, ab28812). Detection was performed by measuring luminescence following the addition of Alphascreen Donor beads (Perkin Elmer 6765300) and Protein A Alphascreen Acceptor beads (Perkin Elmer 6760137), both at a final concentration of 20 ug/ml. IC50 values were determined from concentration-response curves.

The subject of assay [2] is LPS-stimulated PBMC TNFα release. The experiment in a line: LPS-stimulated PBMC TNFα release assay. Particulars: human PBMCs, LPS 10 ng/ml, 18 h, TNFα by ELISA, at least three separate experiments, read-out: p38α inhibition (IC50 values), inhibition of TNFα release. It is filed as cell-based. The procedure:
LPS-Stimulated PBMC TNFα Release Assay.
Peripheral Blood Mononuclear Cells (PBMCs) were isolated from healthy human volunteer blood using a standard density gradient centrifugation technique. Citrated blood was placed onto Histopaque™ and centrifuged. The PBMCs were removed from the density gradient interface and washed in phosphate buffered saline (PBS). The PBMCs were suspended in RPMI 1640 medium (without serum), dispensed into a 96-well plate and incubated at 37° C. for 3 h in a humidified incubator. After incubation, the medium was replaced (with medium containing 1% foetal bovine serum), and the plate incubated at 37° C., for 1 h, in the presence of test compound or the appropriate vehicle. LPS (10 ng/ml), or an appropriate vehicle control, was then added to the cells, and the plate returned to the incubator for 18 h. Cell-free supernatants were removed and assayed for TNFα levels using an ELISA kit from R&D Systems.
A dose response curve to each test compound was performed and the effect of compound in each experiment was expressed as a percentage inhibition of the control TNFα release. Dose response curves were plotted and compound potency (IC50) was determined. Compounds were tested in at least three separate experiments.

T1 sequence (Q16539 whole entry): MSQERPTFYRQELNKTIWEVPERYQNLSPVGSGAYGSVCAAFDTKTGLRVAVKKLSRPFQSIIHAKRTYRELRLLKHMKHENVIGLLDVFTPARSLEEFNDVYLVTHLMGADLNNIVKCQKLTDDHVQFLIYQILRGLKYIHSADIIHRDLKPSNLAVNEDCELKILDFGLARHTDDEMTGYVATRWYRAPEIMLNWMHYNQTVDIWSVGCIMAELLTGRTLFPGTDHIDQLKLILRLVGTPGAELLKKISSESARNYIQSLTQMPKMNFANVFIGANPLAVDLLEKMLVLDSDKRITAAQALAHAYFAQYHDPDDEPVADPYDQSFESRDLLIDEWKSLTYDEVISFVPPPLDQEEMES

On to `COc1ccc(-n2nc(C(C)(C)C)cc2NC(=O)N[C@H]2CC[C@@H](Oc3ccc4nnc(C(C)C)n4c3)c3ccccc32)cc1` [Example 1, 1-(5-tert-Butyl-2-(4-methoxy-phenyl)-2H-pyrazol-3-yl)-3-[(1S,4R)-4-(3-isopropyl-[1,2,4]triazolo[4,3-a]pyridin-6-yloxy)-1,2,3,4-tetrahydro-naphthalen-1-yl]-urea], for which the IC50 in assay [1] and in assay [2] was less than 10 nM throughout.
For the compound `CC(C)c1nnc2ccc(O[C@@H]3CC[C@H](NC(=O)Nc4cc(C(C)(C)C)nn4C)c4ccccc43)cn12` [Example 2, 1-(5-tert-Butyl-2-methyl-2H-pyrazol-3-yl)-3-[(1S,4R)-4-(3-isopropyl-[1,2,4]triazolo[4,3-a]pyridin-6-yloxy)-1,2,3,4-tetrahydro-naphthalen-1-yl]-urea], the IC50 in assay [1] and in assay [2] was less than 10 nM throughout.
Consider `CC(C)c1nnc2ccc(O[C@@H]3CC[C@H](NC(=O)Nc4cc(C(C)(C)C)nn4-c4cccc(SCCO)c4)c4ccccc43)cn12` [Example 3, 1-{5-tert-Butyl-2-[3-(2-hydroxyethylsulfanyl)-phenyl]-2H-pyrazol-3-yl}-3-[(1S,4R)-4-(3-isopropyl-[1,2,4]triazolo[4,3-a]pyridin-6-yloxy)-1,2,3,4-tetrahydro-naphthalen-1-yl]-urea], for which the IC50 in assay [1] and in assay [2] was less than 10 nM each time.
For the compound `CC(C)c1nnc2ccc(O[C@@H]3CC[C@H](NC(=O)Nc4cc(C(C)(C)C)nn4-c4cccc(OCCO)c4)c4ccccc43)cn12` [Example 4, 1-{5-tert-Butyl-2-[3-(2-hydroxy-ethoxy)-phenyl]-2H-pyrazol-3-yl}-3-[(1S,4R)-4-(3-isopropyl-[1,2,4]triazolo[4,3-a]pyridin-6-yloxy)-1,2,3,4-tetrahydro-naphthalen-1-yl]-urea], the IC50 in assay [1] and in assay [2] was less than 10 nM each time.
Regarding `CC(C)c1nnc2ccc(O[C@H]3CC[C@H](NC(=O)Nc4nnc(C(C)(C)C)o4)c4ccccc43)cn12` [Example 5, 1-(5-tert-Butyl-[1,3,4]oxadiazol-2-yl)-3-[(1S,4S)-4-(3-isopropyl-[1,2,4]triazolo[4,3-a]pyridin-6-yloxy)-1,2,3,4-tetrahydro-naphthalen-1-yl]-urea], the IC50 in assay [1] is less than 10 nM; in assay [2], 10 to 100 nM.
`Cc1ccc(-n2cc(NC(=O)N[C@H]3CC[C@H](Oc4ccc5nnc(C(C)C)n5c4)c4ccccc43)cn2)cc1` [Example 6, 1-[(1S,4S)-4-(3-Isopropyl-[1,2,4]triazolo[4,3-a]pyridin-6-yloxy)-1,2,3,4-tetrahydro-naphthalen-1-yl]-3-(1-p-tolyl-1H-pyrazol-4-yl)-urea]: the IC50 in assay [1] was in the range of 100 to 500 nM.
Turning to `CC(C)c1nnc2ccc(O[C@H]3CC[C@H](NC(=O)Nc4ccc(Cl)c(C(F)(F)F)c4)c4ccccc43)cn12` [Example 7, 1-(4-Chloro-3-trifluoromethyl-phenyl)-3-[(1S,4S)-4-(3-isopropyl-[1,2,4]triazolo[4,3-a]pyridin-6-yloxy)-1,2,3,4-tetrahydro-naphthalen-1-yl]-urea], the IC50 in assay [1] and in assay [2] was less than 10 nM each time.
In the case of `CC(C)c1nnc2ccc(O[C@H]3CC[C@H](NC(=O)Nc4nc(C(C)(C)C)no4)c4ccccc43)cn12` [Example 8, 1-(3-tert-Butyl-[1,2,4]oxadiazol-5-yl)-3-[(1S,4S)-4-(3-isopropyl-[1,2,4]triazolo[4,3-a]pyridin-6-yloxy)-1,2,3,4-tetrahydro-naphthalen-1-yl]-urea], the IC50 in assay [1] and in assay [2] was less than 10 nM throughout.
`CC(C)c1nnc2ccc(O[C@H]3CC[C@H](NC(=O)Nc4cnn(C(C)(C)C)c4)c4ccccc43)cn12` [Example 9, 1-(1-tert-Butyl-1H-pyrazol-4-yl)-3-[(1S,4S)-4-(3-isopropyl-[1,2,4]triazolo[4,3-a]pyridin-6-yloxy)-1,2,3,4-tetrahydro-naphthalen-1-yl]-urea]: the IC50 in assay [1] and in assay [2] was less than 10 nM each time.
On to `CC(C)c1nnc2ccc(O[C@@H]3CC[C@H](NC(=O)Nc4cc(C(C)(C)C)nn4CCO)c4ccccc43)cn12` [Example 10, 1-[5-tert-Butyl-2-(2-hydroxy-ethyl)-2H-pyrazol-3-yl]-3-[(1S,4R)-4-(3-isopropyl-[1,2,4]triazolo[4,3-a]pyridin-6-yloxy)-1,2,3,4-tetrahydro-naphthalen-1-yl]-urea], for which, in assay [2], the IC50 lay within 10 to 100 nM.
As to `CC(C)c1nnc2ccc(O[C@@H]3CC[C@H](NC(=O)Nc4cc(C(C)(C)C)nn4-c4ccc(CO)cc4)c4ccccc43)cn12` [Example 11, 1-[5-tert-Butyl-2-(4-hydroxymethyl-phenyl)-2H-pyrazol-3-yl]-3-[(1S,4R)-4-(3-isopropyl-[1,2,4]triazolo[4,3-a]pyridin-6-yloxy)-1,2,3,4-tetrahydro-naphthalen-1-yl]-urea], the IC50 in assay [1] and in assay [2] was less than 10 nM in each case.
For `CC(C)c1nnc2ccc(O[C@@H]3CC[C@H](NC(=O)Nc4cc(C(C)(C)C)nn4-c4cccc(CN5CCC(F)(F)CC5)c4)c4ccccc43)cn12` [Example 12, 1-{5-tert-Butyl-2-[3-(4,4-difluoro-piperidin-1-ylmethyl)-phenyl]-2H-pyrazol-3-yl}-3-[(1S,4R)-4-(3-isopropyl-[1,2,4]triazolo[4,3-a]pyridin-6-yloxy)-1,2,3,4-tetrahydro-naphthalen-1-yl]-urea], the IC50 was less than 10 nM in assay [1] and 10 to 100 nM in assay [2].
With `CC(C)c1nnc2ccc(O[C@@H]3CC[C@H](NC(=O)Nc4cc(C(C)(C)C)nn4-c4ccc(OCCN5CCN(C)CC5)cc4)c4ccccc43)cn12` [Example 13, 1-(5-tert-Butyl-2-{4-[2-(4-methyl-piperazin-1-yl)-ethoxy]-phenyl}-2H-pyrazol-3-yl)-3-[(1S,4R)-4-(3-isopropyl-[1,2,4]triazolo[4,3-a]pyridin-6-yloxy)-1,2,3,4-tetrahydro-naphthalen-1-yl]-urea, formic acid salt], in assay [2], the IC50 lay within 100 to 1000 nM.
In the case of `CC(C)c1nnc2ccc(O[C@H]3CC[C@H](NC(=O)Nc4cc(C(C)(C)C)nn4-c4ccc(C#N)cc4)c4ccccc43)cn12` [Example 14, 1-[5-tert-Butyl-2-(4-cyano-phenyl)-2H-pyrazol-3-yl]-3-[(1S,4S)-4-(3-isopropyl-[1,2,4]triazolo[4,3-a]pyridin-6-yloxy)-1,2,3,4-tetrahydro-naphthalen-1-yl]-urea], the IC50 in assay [1] is 10 to 100 nM; in assay [2], less than 10 nM.
On to `CC(C)c1nnc2ccc(O[C@@H]3CC[C@H](NC(=O)Nc4cc(C(C)(C)C)nn4C4CCNCC4)c4ccccc43)cn12` [Example 16, 1-(5-tert-Butyl-2-piperidin-4-yl-2H-pyrazol-3-yl)-3-[(1S,4R)-4-(3-isopropyl-[1,2,4]triazolo[4,3-a]pyridin-6-yloxy)-1,2,3,4-tetrahydro-naphthalen-1-yl]-urea], for which, in assay [1], the IC50 was less than 10 nM.
On the same count and under the same terms, next, `Cc1ccc(-n2nccc2NC(=O)N[C@H]2CC[C@@H](Oc3ccc4nnc(C(C)C)n4c3)c3ccccc32)cc1` [Example 20, 1-[(1S,4R)-4-(3-Isopropyl-[1,2,4]triazolo[4,3-a]pyridin-6-yloxy)-1,2,3,4-tetrahydro-naphthalen-1-yl]-3-(2-p-tolyl-2H-pyrazol-3-yl)-urea]: 100 to 500 nM; `CC(C)c1nnc2ccc(O[C@@H]3CC[C@H](NC(=O)Nc4cnn(C(C)(C)C)c4)c4cc(F)ccc43)cn12` [Example 21, 1-(1-tert-Butyl-1H-pyrazol-4-yl)-3-[(1S,4R)-7-fluoro-4-(3-isopropyl-[1,2,4]triazolo[4,3-a]pyridin-6-yloxy)-1,2,3,4-tetrahydro-naphthalen-1-yl]-urea]: less than 10 nM.
For `CC(C)c1nnc2ccc(O[C@@H]3CC[C@H](NC(=O)Nc4cc(C(C)(C)C)nn4-c4ccc5cnn(CCN6CCOCC6)c5c4)c4ccccc43)cn12` [Example 24, 1-{5-tert-Butyl-2-[1-(2-morpholin-4-yl-ethyl)-1H-indazol-6-yl]-2H-pyrazol-3-yl}-3-[(1S,4R)-4-(3-isopropyl-[1,2,4]triazolo[4,3-a]pyridin-6-yloxy)-1,2,3,4-tetrahydro-naphthalen-1-yl]-urea], in assay [1], the IC50 is less than 10 nM.
The same measure, in the same setting: next, `CC(C)c1nnc2ccc(O[C@@H]3CC[C@H](NC(=O)Nc4cc(C(C)(C)C)nn4-c4ccc5cn(CCN6CCOCC6)nc5c4)c4ccccc43)cn12` [Example 25, 1-{5-tert-Butyl-2-[2-(2-morpholin-4-yl-ethyl)-2H-indazol-6-yl]-2H-pyrazol-3-yl}-3-[(1S,4R)-4-(3-isopropyl-[1,2,4]triazolo[4,3-a]pyridin-6-yloxy)-1,2,3,4-tetrahydro-naphthalen-1-yl]-urea]: less than 10 nM.
